Experimental findings from patent publication US11752155B2, “Treatment of autism spectrum disorders, obsessive-compulsive disorder and anxiety disorders” (Rugen Holdings (Cayman) Limited, priority 2016, dated 2023) are described below.

The target of series [1] is native rat brain NR2B receptors (Rattus norvegicus (Rat), UniProt P35439+Q00960). In words: NR2B radioligand binding assay in rat brain using [3H] (E)-N1-(2-methoxybenzyl)-cinnamidine. Conditions: rat brain NR2B receptors; mean of replicates; read-out: Arithmetic Mean Ki. The method, then:
This example describes an NR2B receptor binding assay in rat brain using [^3H] […] The binding assay method was adapted from a previously described cellular human NR1a/NR2B cloned receptor assay (Kiss et al. Neurochem. Internatl. 2005, 46:453-464) to rat brain tissue. This assay serves as a selective measure of NR2B receptor binding activity in native rat brain receptors. Briefly, the brains of male Wistar rats were homogenized (Polytron) before centrifugation at 40,000×g for 15 minutes at 4° C. After 2 washes, the final pellet was homogenized and stored at −80° C. The protein concentration was determined by Bradford assay. [^3H] […] Non-specific binding was assessed in the presence of excess (10 μM) (E)-N1-(2-nethoxybenzyl)-cinnamidine.
Test compounds were solubilized at 10 mM in DMSO. Then the dilutions were performed with a constant solvent concentration (1% DMSO) in the assay. After incubation for 4.5 hours at room temperature, the assays were filtered on GF/3 filters pretreated with 0.3% (v/v) polyethylenimine (PEI) with a Packard system. The experiment was performed in duplicate (n=2).

Series [2] has as its system wild type mice (male NMRI). Briefly: Marble Burying Test in wild type mice. Format: in vivo, mouse. To be noted: Mus musculus, ip, read-out: Percent Change in marbles buried relative to vehicle. As to the method: Animals. Male NMRI mice (20-30 g body weight) were obtained from Janvier Labs (Le Genest-Saint Isle, France) and allowed to acclimate to the animal facility for at least 5 days. Twelve mice were studied per treatment group.
Compound formulation. The test compounds were prepared in a vehicle of 0.5% DMSO and 4% HP-β-CD, and administered orally (PO) or IP. The test compounds or vehicle were administered 20 minutes before the behavioral test described below. Clobazam (8 mg/kg IP), administered 30 minutes before the test, was used as the positive reference compound.
Clobazam was dispersed in 0.2% hydroxypropylmethylcellulose (HPMC) in physiological saline. Dosing volume was 10 mL/kg.
Testing procedure. The Marble Burying Test was conducted as previously described by Broekkamp et al. (Eur. J. Pharmacol. 1986, 126:223-229). Mice exposed to small novel objects (marbles) will bury them in the sawdust floor covering. Anxiolytics decrease the number of marbles buried at non-sedating doses. Mice were individually placed in transparent plastic cages (33×21×18 cm) with 5 cm of sawdust on the floor and 25 marbles grouped in the center of the cage. The cage was covered with an inverted plastic cage. Each test cage, together with the marbles, was impregnated with mouse odor before-hand by leaving 10 mice in the cage for 15 minutes. These mice then played no further role in the experiment. The number of marbles covered by sawdust (⅔ or more) was counted at the end of the 30-minute test. The test was performed blind (compounds versus vehicle).
Statistical analyses. Data were analyzed by comparing test compound-treated groups with the vehicle control group using the Kruskal-Wallis test followed by post-hoc Mann-Whitney U tests. Data comparing the reference compound with the vehicle were analyzed using the Mann-Whitney U test. A p value<0.05 was considered significant.

The target of series [3] is human NR1/NR2B (Homo sapiens (Human), UniProt Q05586+Q13224). Briefly: NR2B antagonist activity: calcium influx (Fluo-4) assay in HEK293 cells. Type of series: cell-based. As to the method: Activation of the NR2A or NR2B subtype of NMDA receptor with glutamate as an agonist and glycine co-agonist on these cells results in calcium influx, which can be monitored with fluorescent indicator Fluo-4.
For experiments, the cells were seeded onto poly-D-lysine-coated 96-well black plates with clear bottom (Corning) at a density of ˜50,000 cells/well. After overnight culture, the growth medium was removed from the wells and the cells were incubated at 37° C. for 60 minutes in Hanks buffer containing 4 μM fluo-4-AM (Invitrogen) and 0.1% bovine serum albumin (BSA). After dye-loading, the cells were washed three times with Hanks buffer and incubated for 10 minutes at room temperature with various concentrations of test compounds prepared in Hanks buffer with 0.1% BSA. The cell plates were placed onto an FDSS Cell fluorescence reader (Hamamatsu). After 20 seconds of reading background fluorescence, agonist glutamate at final 100 µM and co-agonist glycine at final 50 μM were added to the cells to activate the receptor, and the resulting fluorescence changes were recorded and quantified. Based on the changes in fluorescence intensity, the pharmacological effect of test compounds was analyzed and the IC50 values derived from a non-linear least squares fitting of the concentration-dependent response to a standard logistic equation using Prism (Graphpad Software, Inc.): Amplitude=Max Amplitude/(1+(IC50/[antagonist])^n).

Series [4] has as its system wild type mice (male C57Bl/6). In words: Novelty Phobia Test in wild type mice. Format: in vivo, mouse. The method, then: Animals. Male C57Bl/6 mice (18-30 g body weight; 6-8 weeks of age) were obtained from Slaccas (Shanghai, China) and allowed to acclimate to the animal facility for 7 days. Mice were group housed in plastic cages (no more than 4 animals per cage) on wood shavings with nesting material. All animals had free access to food (M01-F, Slaccas) and water. The animal facility was maintained under artificial lighting between 7:00 AM and 7:00 PM in a controlled ambient temperature of 22-24° C. and relative humidity between 50-60%.
Compound formulation. The test compounds were prepared in a vehicle of DMSO and HP-β-CD, and administered IP or PO. The test compounds or vehicle were administered at various times (10-20 minutes) before the behavioral test described below. Dosing volume was 10 mL/kg.
Testing procedure. The behavioral testing apparatus was a rectangular black Plexiglas, 2-chambered box, with no top or bottom (50 cm long, 26 cm wide and 15 cm tall) and allowed for the simultaneous testing of 2 mice. The box was placed on a laboratory bench. The chambers of the testing box were cleaned and fresh paper chip bedding was added between tests. Mice were brought to the experiment room in their home cages on the day of testing. Behavioral tests were conducted between 10:00 AM and 1:00 PM in dim light. After drug administration, a mouse was placed into a test chamber and allowed to explore for 10 minutes. After this habituation period, a novel object (e.g., a toy ball of 3 cm in diameter with spikes) was introduced to the center of the chamber for 5 minutes. For the entire 15-minute test period, video was recorded for offline analysis with Any-maze Video Tracking software (Stoelting Co., Wood Dale, Ill.). The total distance traveled during the entire 15 minutes and the number of bouts that each mouse touched the novel object during the last 5 minutes were measured.
Statistical analyses. Data are presented as means and SEMs. Data were analyzed using one-way analysis of variance (ANOVA; Prism, GraphPad Software Inc., San Diego, Calif.), followed by the post-hoc Dunnett's test to compare test compound-treated groups with the vehicle control. A p value<0.05 was considered significant.

For series [5], the target named is CYP2D6 (Homo sapiens (Human), UniProt P10635). Briefly: CYP P450 enzyme inhibition in pooled human liver microsomes (dextromethorphan probe). Format: in vitro ADME. To be noted: Table 1.4B. As to the method: Test compound concentration-dependent response studies were performed in triplicate.
(In general: Liver microsomes are a subcellular fraction often used to study metabolism.)

The target in series [6] is hERG channel (Homo sapiens (Human), UniProt Q12809). In words: hERG channel inhibition, whole cell patch clamp in HEK293 cells. Type of series: cell-based. On the technique in general: The hERG channel carries a current that helps repolarise heart muscle cells.
Protocol: The assay was performed on hERG channel stably expressed in HEK293 cells. The cells were cultured at 37° C. in a humidified CO2 incubator in the growth medium consisting of DMEM, 10% fetal bovine serum and antibiotics. Prior to the assay, the cells were seeded onto a 12-mm PDL-coated glass coverslip and cultured in a 35-mm Petri dish. After 16 to 40 hours culture, the coverslip was transferred into the chamber of OctaFlow perfusion system (ALA Instrument) and under a constant flow of extracellular solution (140 mM NaCl, 4 mM KCl, 1 mM MgCl2, 2 mM CaCl2, 10 mM HEPES, 10 mM D-glucose, pH 7.35, osmolarity 290). Whole cell patch clamping was performed with a glass micropipette filled with intracellular solution (120 mM KCl, 1.75 mM MgCl2, 5.4 mM CaCl2, 10 mM HEPES, 10 mM EGTA, and 4 mM ATP-K2, pH 7.2, osmolarity 310). Giga-seal was maintained during the test. The voltage control and current measurement were carried out using Axon amplifier 700B, Digidata 1440A and CLAMPEX10 software (Molecular Devices). Whole-cell hERG currents were recorded following the Petroski protocol: the cell was held at −80 mV, and the voltage step jumped from −80 to 30 mV and stay for 2 seconds with a 20-millisecond prepulse at −40 mV. After depolarization, the voltage was decreased to −40 mV and stay for 2 seconds, and returned back to −80 mV. Test compound was applied by quartz capillary tubes tip (200 m inner diameter), and the flow rate was controlled at 2-3 mL/min with OctaFlow perfusion system. Different concentrations of the compound were applied to the cells for 5 minutes and the hERG current was measured three times before, during and after compound treatment. The data were analyzed using Clampfit 10 software (Molecular Devices) to generate IC50 values.
[7] abbreviates: Table 1.1A, read-out: NR2B IC50.
Setting [8] is: Table 1.3A, read-out: hNR2B IC50.
Setting [9] is: Table 1.4A, read-out: NR2B IC50.

Structures can show the parent of a compound that is named as a salt. Where two headings read alike, the source gives them in different places.

human NR1/NR2B, sequence (Q13224 27-1484, other chains not shown): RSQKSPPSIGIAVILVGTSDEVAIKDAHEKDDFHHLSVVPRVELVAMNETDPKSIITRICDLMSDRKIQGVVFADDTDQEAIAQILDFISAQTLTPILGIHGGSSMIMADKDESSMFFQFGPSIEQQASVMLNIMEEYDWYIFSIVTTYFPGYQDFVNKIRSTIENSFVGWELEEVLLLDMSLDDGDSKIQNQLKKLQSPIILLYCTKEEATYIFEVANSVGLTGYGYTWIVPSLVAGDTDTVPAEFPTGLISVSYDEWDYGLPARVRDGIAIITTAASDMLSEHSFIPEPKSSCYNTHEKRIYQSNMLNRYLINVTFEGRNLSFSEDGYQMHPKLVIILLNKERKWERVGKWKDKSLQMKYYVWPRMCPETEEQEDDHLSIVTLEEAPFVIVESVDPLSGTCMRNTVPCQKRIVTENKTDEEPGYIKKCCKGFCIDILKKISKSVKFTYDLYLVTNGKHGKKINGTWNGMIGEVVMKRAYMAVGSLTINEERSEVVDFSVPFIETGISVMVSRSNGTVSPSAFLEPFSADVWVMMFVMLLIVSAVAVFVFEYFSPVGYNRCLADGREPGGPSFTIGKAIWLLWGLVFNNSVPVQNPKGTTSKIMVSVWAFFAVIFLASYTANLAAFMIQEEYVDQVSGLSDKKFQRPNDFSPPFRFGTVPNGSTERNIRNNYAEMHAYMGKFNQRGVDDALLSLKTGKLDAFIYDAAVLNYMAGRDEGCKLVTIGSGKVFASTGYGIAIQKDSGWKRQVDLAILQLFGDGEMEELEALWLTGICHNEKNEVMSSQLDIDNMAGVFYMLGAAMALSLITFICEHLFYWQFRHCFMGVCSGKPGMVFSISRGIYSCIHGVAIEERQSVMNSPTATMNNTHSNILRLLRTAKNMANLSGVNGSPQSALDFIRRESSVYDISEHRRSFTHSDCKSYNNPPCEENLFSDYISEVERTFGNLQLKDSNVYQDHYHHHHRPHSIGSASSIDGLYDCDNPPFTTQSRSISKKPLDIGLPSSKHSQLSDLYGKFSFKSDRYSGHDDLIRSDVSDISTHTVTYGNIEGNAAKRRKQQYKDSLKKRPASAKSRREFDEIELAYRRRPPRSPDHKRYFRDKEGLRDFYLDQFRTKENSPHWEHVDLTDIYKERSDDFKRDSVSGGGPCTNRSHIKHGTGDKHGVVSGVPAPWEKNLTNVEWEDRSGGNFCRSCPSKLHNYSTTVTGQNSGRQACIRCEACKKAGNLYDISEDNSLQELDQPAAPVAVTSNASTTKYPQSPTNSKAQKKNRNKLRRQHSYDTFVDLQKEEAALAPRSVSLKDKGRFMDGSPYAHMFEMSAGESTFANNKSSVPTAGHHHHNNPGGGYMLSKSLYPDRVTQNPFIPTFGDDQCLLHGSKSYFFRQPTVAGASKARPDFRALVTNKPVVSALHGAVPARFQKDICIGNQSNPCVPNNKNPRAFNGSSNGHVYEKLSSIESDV
native rat brain NR2B receptors, sequence (Q00960 27-1482, other chains not shown): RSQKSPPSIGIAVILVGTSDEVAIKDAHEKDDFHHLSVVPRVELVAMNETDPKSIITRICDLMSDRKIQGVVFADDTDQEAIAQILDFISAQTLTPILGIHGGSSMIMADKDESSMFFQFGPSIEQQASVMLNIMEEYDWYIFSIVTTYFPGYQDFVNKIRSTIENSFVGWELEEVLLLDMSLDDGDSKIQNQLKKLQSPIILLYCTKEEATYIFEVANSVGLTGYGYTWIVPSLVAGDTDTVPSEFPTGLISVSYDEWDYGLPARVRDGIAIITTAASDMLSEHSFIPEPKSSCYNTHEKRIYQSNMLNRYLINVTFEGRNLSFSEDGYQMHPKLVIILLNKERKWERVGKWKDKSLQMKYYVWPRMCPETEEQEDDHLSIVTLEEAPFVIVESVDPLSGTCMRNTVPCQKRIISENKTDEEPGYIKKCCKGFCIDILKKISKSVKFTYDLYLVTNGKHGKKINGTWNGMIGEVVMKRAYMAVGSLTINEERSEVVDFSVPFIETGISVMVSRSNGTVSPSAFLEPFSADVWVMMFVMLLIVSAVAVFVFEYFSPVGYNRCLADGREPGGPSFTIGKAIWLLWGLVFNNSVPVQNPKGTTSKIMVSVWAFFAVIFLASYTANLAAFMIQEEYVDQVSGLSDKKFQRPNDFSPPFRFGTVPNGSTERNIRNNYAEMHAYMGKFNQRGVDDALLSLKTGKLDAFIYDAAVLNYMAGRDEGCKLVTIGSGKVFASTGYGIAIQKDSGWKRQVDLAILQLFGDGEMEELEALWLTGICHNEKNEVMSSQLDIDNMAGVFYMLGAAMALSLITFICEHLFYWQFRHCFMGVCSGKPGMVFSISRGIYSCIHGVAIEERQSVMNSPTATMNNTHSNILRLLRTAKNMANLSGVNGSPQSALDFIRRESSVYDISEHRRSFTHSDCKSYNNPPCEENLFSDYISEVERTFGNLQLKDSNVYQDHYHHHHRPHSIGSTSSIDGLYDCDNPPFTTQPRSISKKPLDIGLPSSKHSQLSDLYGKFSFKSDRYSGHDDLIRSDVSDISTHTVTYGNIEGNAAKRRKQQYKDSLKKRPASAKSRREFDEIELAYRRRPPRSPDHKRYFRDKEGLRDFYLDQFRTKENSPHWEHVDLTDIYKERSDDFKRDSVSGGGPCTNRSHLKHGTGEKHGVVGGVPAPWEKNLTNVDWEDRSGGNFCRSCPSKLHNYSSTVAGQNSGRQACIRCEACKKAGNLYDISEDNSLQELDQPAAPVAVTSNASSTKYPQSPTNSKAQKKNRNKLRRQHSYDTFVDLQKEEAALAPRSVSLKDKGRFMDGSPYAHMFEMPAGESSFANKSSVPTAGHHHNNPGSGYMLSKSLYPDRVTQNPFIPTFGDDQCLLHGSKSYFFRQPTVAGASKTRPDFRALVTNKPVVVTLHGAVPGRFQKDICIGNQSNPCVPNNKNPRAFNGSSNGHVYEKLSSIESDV
CYP2D6, sequence (P10635 whole entry): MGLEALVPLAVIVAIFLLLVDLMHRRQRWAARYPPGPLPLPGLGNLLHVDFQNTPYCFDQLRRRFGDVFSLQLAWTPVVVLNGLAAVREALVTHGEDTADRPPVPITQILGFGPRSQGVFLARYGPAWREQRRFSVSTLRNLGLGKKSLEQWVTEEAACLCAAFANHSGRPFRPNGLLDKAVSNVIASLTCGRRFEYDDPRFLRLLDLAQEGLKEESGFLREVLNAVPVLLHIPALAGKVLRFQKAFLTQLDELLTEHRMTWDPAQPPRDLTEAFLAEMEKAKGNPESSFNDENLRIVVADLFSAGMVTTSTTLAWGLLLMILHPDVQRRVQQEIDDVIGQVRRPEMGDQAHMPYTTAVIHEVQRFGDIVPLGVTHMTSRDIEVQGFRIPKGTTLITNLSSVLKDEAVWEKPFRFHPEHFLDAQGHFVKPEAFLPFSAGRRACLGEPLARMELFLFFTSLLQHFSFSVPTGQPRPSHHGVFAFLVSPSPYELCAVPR
hERG channel, sequence (Q12809 whole entry): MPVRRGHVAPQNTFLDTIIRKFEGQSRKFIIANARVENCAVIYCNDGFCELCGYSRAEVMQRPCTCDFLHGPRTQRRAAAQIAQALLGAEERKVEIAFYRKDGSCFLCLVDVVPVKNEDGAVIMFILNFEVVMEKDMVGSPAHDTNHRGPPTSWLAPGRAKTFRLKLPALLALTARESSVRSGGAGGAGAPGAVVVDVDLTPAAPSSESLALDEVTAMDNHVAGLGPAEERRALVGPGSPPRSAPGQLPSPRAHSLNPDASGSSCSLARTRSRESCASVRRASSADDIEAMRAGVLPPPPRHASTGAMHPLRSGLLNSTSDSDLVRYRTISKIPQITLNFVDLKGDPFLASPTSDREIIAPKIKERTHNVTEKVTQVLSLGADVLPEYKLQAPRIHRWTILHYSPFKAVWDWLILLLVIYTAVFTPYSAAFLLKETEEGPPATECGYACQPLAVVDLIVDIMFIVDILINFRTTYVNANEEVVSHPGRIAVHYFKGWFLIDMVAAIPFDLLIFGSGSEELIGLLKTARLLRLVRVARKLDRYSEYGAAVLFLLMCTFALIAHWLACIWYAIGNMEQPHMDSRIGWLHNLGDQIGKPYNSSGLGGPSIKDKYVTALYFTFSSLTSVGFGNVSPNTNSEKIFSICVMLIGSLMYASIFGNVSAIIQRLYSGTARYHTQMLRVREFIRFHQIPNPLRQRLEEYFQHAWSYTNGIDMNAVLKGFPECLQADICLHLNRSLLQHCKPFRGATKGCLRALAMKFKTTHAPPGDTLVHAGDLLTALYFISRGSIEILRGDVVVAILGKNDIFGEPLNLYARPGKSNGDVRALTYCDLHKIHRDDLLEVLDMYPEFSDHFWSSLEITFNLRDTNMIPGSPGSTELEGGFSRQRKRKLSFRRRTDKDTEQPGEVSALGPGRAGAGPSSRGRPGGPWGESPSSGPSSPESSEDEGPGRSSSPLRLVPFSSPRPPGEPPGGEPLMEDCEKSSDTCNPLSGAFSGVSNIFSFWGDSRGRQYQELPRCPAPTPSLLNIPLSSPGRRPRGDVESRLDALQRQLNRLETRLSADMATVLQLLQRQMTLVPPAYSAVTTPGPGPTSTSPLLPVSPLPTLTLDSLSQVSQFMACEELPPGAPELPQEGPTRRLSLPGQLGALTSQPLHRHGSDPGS

For the molecule `FC(F)(F)c1ccc(C(F)(F)CN2CCC(Nc3ncnc4[nH]ccc34)CC2)nc1` [C-5^A′], the Ki in series [1] was determined as 15.7 nM. In series [2], the change in vivo at 3 mg/kg came out at 2%. The change in vivo at 10 mg/kg in series [2] was -50%; in series [4] (Mus musculus, ip, 10 min, IP, 10 mg/kg, pre-test time 10 min, read-out: Percent Change in Novel Object Number of Nose Touches relative to vehicle control) it was 70.8%. Besides, the change in vivo at 30 mg/kg was -98% in series [2] (30 mg/kg) and 42.4% in series [4] (Mus musculus, ip, 10 min, IP, pre-test time 10 min, read-out: Percent Change in Novel Object Number of Nose Touches relative to vehicle control). For the same molecule, the IC50 in series [3] (setting [7]), in series [3] (setting [8]) and in series [3] (setting [9]) was 30 nM in each case. The “bouts of nose touching of the novel object, efficacy” value in series [4] (IP (C-11 also PO)) was “not efficacious”. For the same molecule, the change in vivo at 60 mg/kg in series [4] (Mus musculus, ip, 10 min, IP, 60 mg/kg, pre-test time 10 min, read-out: Percent Change in Novel Object Number of Nose Touches relative to vehicle control) is -36.9%.
As for `FC(F)(F)c1ccc(C(F)(F)CN2CCC(Nc3ncnc4[nH]ccc34)CC2)cn1` [C-127^A′], the Ki in series [1] was 31.6 nM. Moreover, in series [2], the change in vivo at 1 mg/kg stood at 15%. Besides, the change in vivo at 3 mg/kg in series [2] was -27%. Also, the change in vivo at 10 mg/kg in series [2] was -98%. For the same molecule, the IC50 in series [3] (setting [7]), in series [3] (setting [8]) and in series [3] (setting [9]) was 45 nM in each case. For the same molecule, the change in vivo at 20 mg/kg in series [4] (Mus musculus, ip, 0.25 h, IP, 20 mg/kg, pre-test time 15 min, read-out: Percent Change in Novel Object Number of Nose Touches relative to vehicle control) was found to be 120%. Further, in series [4] (Mus musculus, ip, 0.25 h, IP, pre-test time 15 min, read-out: Percent Change in Novel Object Number of Nose Touches relative to vehicle control), the change in vivo at 30 mg/kg worked out at 160%. For the same molecule, the “pattern of the dose-response function for bouts of nose touching” value in series [4] (mouse, in vivo) was “dose-dependent increases”.
On to `Cc1ccc(COC(=O)N2CC[C@H](CNc3ncc(C)cn3)C(F)(F)C2)cc1` [E1-22.26^B′, (R)-4-methylbenzyl 3,3-difluoro-4-(((5-methylpyrimidin-2-yl)amino)methyl)piperidine-1-carboxylate mesylate], for which the Ki in series [1] was determined as 3.4 nM. In addition, in series [2], the change in vivo at 1 mg/kg was -12%, the change in vivo at 3 mg/kg was -23% and the change in vivo at 10 mg/kg is -96%.
`Cc1ccc(COC(=O)N2CC[C@H](CNc3ccccn3)C(F)(F)C2)cc1` [E1-23.2^B′, (R)-4-methylbenzyl 3,3-difluoro-4-((pyridin-2-ylamino)methyl)piperidine-1-carboxylate]: the IC50 in series [5] amounted to 18000 nM; in series [6] (Table 1.3B), 5600 nM.
Turning to `O=C(OCc1ccc(F)cc1)N1CC[C@H](CNc2ccccn2)C(F)(F)C1` [E1-23.4^B′, (R)-4-fluorobenzyl 3,3-difluoro-4-((pyridin-2-ylamino)methyl)piperidine-1-carboxylate], the Ki in series [1] came out at 7.8 nM.
Same read-out and setting: to `Cc1ccc(COC(=O)N2CC[C@H](CNc3cccc(C)n3)C(F)(F)C2)cc1` [E1-23.32^B′, (+)-(R)-4-methylbenzyl 3,3-difluoro-4-(((6-methylpyridin-2-yl)amino)methyl)piperidine-1-carboxylate] belongs 31 nM.
Take `O=C(OCc1ccc(F)cc1)N1CC[C@H](CNc2cccnn2)C(F)(F)C1` [E1-24.4^B′, (R)-4-fluorobenzyl 3,3-difluoro-4-((pyridazin-3-ylamino)methyl)piperidine-1-carboxylate methanesulfonate]: in series [1], the Ki came to 10 nM.
Same read-out and setting: to `O=C(OCc1ccc(C(F)F)cc1)N1CC[C@H](CNc2cccnn2)C(F)(F)C1` [E1-24.6^B′, (R)-4-(difluoromethyl)benzyl 3,3-difluoro-4-((pyridazin-3-ylamino)methyl)piperidine-1-carboxylate hydrochloride] belongs 4.7 nM.
In turn, `Cc1ccc(COC(=O)N2CC[C@H](CNc3ccncn3)C(F)(F)C2)cc1` [E1-37.2^B′, (R)-4-methylbenzyl 3,3-difluoro-4-((pyrimidin-4-ylamino)methyl)piperidine-1-carboxylate methanesulfonate] yielded an IC50 in series [5] of 200 nM.
For `O=C(OCc1ccc(F)cc1)N1CC[C@H](CNc2ccncn2)C(F)(F)C1` [E1-37.4^B′, (R)-4-fluorobenzyl 3,3-difluoro-4-((pyrimidin-4-ylamino)methyl)piperidine-1-carboxylate mesylate], the Ki in series [1] is 4.7 nM.
On the same count and under the same terms, the value for `O=C(OCc1ccc(C(F)F)cc1)N1CC[C@H](CNc2ccncn2)C(F)(F)C1` [E1-37.6^B′, (R)-4-(difluoromethyl)benzyl 3,3-difluoro-4-((pyrimidin-4-ylamino)methyl)piperidine-1-carboxylate hydrochloride] was 3.9 nM; that for `O=C(OCc1ccc(F)cc1)N1CC[C@H](CNc2ccncc2F)C(F)(F)C1` [E1-38.10^B′, (R)-4-fluorobenzyl 3,3-difluoro-4-(((3-fluoropyridin-4-yl)amino)methyl)piperidine-1-carboxylate mesylate] was 3.8 nM.
Consider `Cc1ccc(COC(=O)N2CC[C@@H](CNc3nccn4cnnc34)C(F)(F)C2)cc1` [E2-1.2^B′], for which the Ki in series [1] was found to be 84.2 nM. For the same molecule, the IC50 in series [3] (Table 1.1B, read-out: NR2B IC50) is 156 nM; in series [3] (Table 1.3B, read-out: NR2B IC50), 156 nM; in series [3] (Table 1.4B, read-out: NR2B IC50), 156 nM. Further, the inhibition at 5 min, 10 µM in series [6] (human, HEK293 cells stably expressing hERG channel, pH 7.35, 10 μM) was found to be 22%.

A word on the Ki: it is the equilibrium dissociation constant of an inhibitor or competing ligand from its target. Usually IC50 stands for the midpoint of a concentration-inhibition curve. The term inhibition denotes the percentage by which the read-out fell short of the control.
